The results in this text go back to patent US5334594A, “Amphoteric tricyclic compound” (Hokoriku Pharmaceutical Co., Ltd., priority 1992, dated 1994).

Where a name gives a salt, the structure may show the parent alone. Read-outs that look alike come from different tables or passages of the source.

Assay [1] deals with compound 48/80-induced lethality (antihistaminic (H1) activity). Description: Inhibitory effect on compound 48/80-induced lethality in rats (antihistaminic activity). In kind it is in vivo, rat (male Wistar). Particulars: Rattus norvegicus, po, 2 h; 1 mg/kg orally one hour before compound 48/80 (1 mg/kg i.v.); survival after two hours; read-out: Survival rate. On the procedure: 1. Inhibitory Effects on Compound 48/80-Induced Lethality in Rats (Antihistaminic Activity)
The evaluation of antihistaminic activity was carried out according to the method of Niemegeers et al. (Arch. Int. Pharmacodyn. Ther., 234, 164 (1978)).
Male Wistar rats, 6 weeks of age, were used in the experiments. Compound 48/80 (formaldehyde condensation product of p-methoxy-N-methylphenethylamine) was administered intravenously to rats at a lethal dose of 1 mg/kg. Survival rates were determined according to an all or non criteria by using the numbers of rats that survived after two hours. Test compounds (1 mg/kg) were administered orally to rats one hour before the administration of compound 48/80.

Assay [2] deals with 48 h homologous passive cutaneous anaphylaxis (PCA). Description: Inhibitory effects on 48 h homologous passive cutaneous anaphylaxis (PCA) in rats (antiallergic activity). In kind it is in vivo, rat (male Wistar). The conditions noted are these: 1 mg/kg orally one hour before antigen challenge. On the procedure:
2. Inhibitory Effects on 48 h Homologous Passive Cutaneous Anaphylaxis (PCA) in Rats (Antiallergic Activity)
The induction and evaluation of antiallergic activity were carried out according to the method of Makino et al. (Japan J. Pharmacology, 52, 87 (1990)).
Male Wistar rats, 6 weeks of age, were passively sensitized by intracutaneous injection on the back at a volume of 0.1 ml of 20- or 40-fold diluted anti-DNP-As rat serum. After 48 hours, the animals were challenged by an intravenous injection of 0.5 ml saline solution containing 1 mg of DNP-As and 5 mg of Evans blue. The animals were sacrificed 30 minutes after the challenge and then the extravasated dye was extracted with 1N KOH and acetone. After neutralization with 1N H3 PO4, the amount of dye was determined by measuring the absorbance of the extract at 620 nm. Test compounds (1 mg/kg) were orally administered to rats one hour before the antigen challenge. The inhibitory activity of test compounds were obtained as percent inhibition of PCA by comparing the results obtained from control rats.

Assay [3] addresses T1, histamine (H1) receptor (Cavia porcellus, UniProt P31389).
T1 construct: Separated cerebral cortices were homogenized in 50-folds volume of 50 mM Na/K-phosphate buffer (pH 7.4); from tissue; host or cells: guinea-pig cerebral cortex, crude membrane fraction (homogenate)
Put plainly: Inhibitory effects on ex vivo [^3 H]-mepyramine binding to guinea-pig cerebral cortex (degree of penetration into brain). The class given is in vivo, guinea-pig (male Hartley). Particulars: for ED50: 2 h, oral, two hours, ex vivo [^3 H]-mepyramine binding, guinea-pig cerebral cortex, read-out: Degree of penetration activity (A) ID50; for Selectivity (C/B): ratio of ID50 (brain penetration, C) to ED50 (antiasthmatic activity, B). On the procedure:
4. Inhibitory Effects on Ex Vivo [^3 H]-Mepyramine Binding to Guinea-Pig Cerebral Cortex (Degree of Penetration into Brain)
The evaluation of histamine (H1) receptor affinity on guinea-pig cerebral cortex was carried out according to the method of Ahn et al. (Eur. J. Pharmacol., 127, 153 (1986)).
Male Hartley guinea-pigs, 6 weeks of age, were administered orally with test compounds or vehicles. After two hours, animals were killed by exsanguination and brains were rapidly isolated. Separated cerebral cortices were homogenized in 50-folds volume of 50 mM Na/K-phosphate buffer (pH 7.4). These homogenates were used as crude membrane fractions for receptor binding assay. [^3 H]-mepyramine was used as a radio-active ligand. […] The ID50 values (doses which induce 50% inhibition of specific binding of vehicle treated group) were calculated using dose-inhibition curves.

In assay [4] the test system is histamine-induced bronchoconstriction. Description: Inhibitory effects on histamine-induced bronchoconstriction in anesthetized guinea-pigs (antiasthmatic activity). In kind it is in vivo, guinea-pig (male Hartley). Particulars: for ED50: Cavia porcellus, 2 h, read-out: Antiasthmatic activity (B) ED50. On the procedure:
3. Inhibitory Effects on Histamine-Induced Bronchoconstriction in Anesthetized Guinea-Pigs (Antiasthmatic Activity)
The induction and evaluation of antiasthmatic activity were carried out according to the method of Makino et al. (J. Pharm. Pharmacol., 42, 236 (1990)).
Male Hartley guinea-pigs, 6 weeks of age, were anesthetized with urethane ( 1.5 g/kg, i.p. ). The carotid artery and jugular vein were cannulated to measure arterial blood pressure and to facilitate intravenous histamine administration. The trachea was cannulated and the animals were ventilated using a respiratory pump (60 strokes/min; 4 ml/stroke). Changes in insufflation pressure induced by the administration of histamine (20 μg/kg, i.v.) at a constant airflow were constantly monitored as percentage values based on the maximum pressure (100%) (Bronchospasm tramsducer 7020, Ugo Basile). Test compounds were administered orally to animals two hours before the administration of histamine. The ED50 values (doses which induce 50% inhibition of histamine-induced broncho-constriction compared to inhibition observed in control) were calculated using dose-inhibition curves.

In assay [5] the target is muscarinic acetylcholine receptor. Put plainly: Inhibition of [^3 H]-QNB binding to rat cerebral cortex membrane (muscarinic acetylcholine receptor binding assay). Particulars: -log Ki by Cheng and Prusoff.
Where [6] appears, read: oral, two hours before histamine (20 μg/kg, i.v.), anesthetized guinea-pigs.

T1 sequence (P31389 whole entry): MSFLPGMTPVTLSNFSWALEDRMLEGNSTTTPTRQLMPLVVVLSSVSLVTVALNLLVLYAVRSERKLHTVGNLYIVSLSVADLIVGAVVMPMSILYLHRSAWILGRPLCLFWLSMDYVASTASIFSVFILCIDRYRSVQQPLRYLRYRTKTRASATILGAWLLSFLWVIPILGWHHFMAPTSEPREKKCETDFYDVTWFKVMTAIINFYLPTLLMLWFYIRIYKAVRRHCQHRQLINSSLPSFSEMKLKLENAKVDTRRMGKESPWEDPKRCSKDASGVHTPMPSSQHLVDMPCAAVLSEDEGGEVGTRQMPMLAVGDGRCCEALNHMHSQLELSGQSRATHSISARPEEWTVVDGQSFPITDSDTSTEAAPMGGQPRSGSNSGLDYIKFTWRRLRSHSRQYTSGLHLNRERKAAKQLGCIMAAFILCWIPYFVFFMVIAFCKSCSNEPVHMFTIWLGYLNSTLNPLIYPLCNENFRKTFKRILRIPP

With `O=C(O)CCCN1CCC(=C2c3ccc(F)cc3OCc3cccnc32)CC1` [Example 10-(2), 4-[4-(8-Fluoro-5,11-dihydrobenz[b]oxepino[4,3-b]pyridin-11-ylidene)piperidino]butyric Acid], in assay [1], the responders at 1 mg/kg worked out at 100%.

Take `O=C(O)CCCCN1CCC(=C2c3ccc(F)cc3OCc3cccnc32)CC1` [Example 11-(2), 5-[4-(8-Fluoro-5,11-dihydrobenz[b]oxepino[4,3-b]pyridin-11-ylidene)piperidino]valetic Acid]: in assay [1], the responders at 1 mg/kg worked out at 100%.

`O=C(O)CCN1CCC(=C2c3ccc(Cl)cc3OCc3cccnc32)CC1` [Example 5-(2), 3-[4-(8-Chloro-5,11-dihydrobenz[b]oxepino[4,3-b]pyridin-11-ylidene)piperidino]propionic Acid. Hydrochloride]: the “Antiallergic activity (A) inhibition (%)” value in assay [2] is reported as 79%. For the same compound, in assay [3], the ED50 is 53 mg/kg and the “Selectivity (C/B)” value was 2304. For the same compound, the responders at 1 mg/kg in assay [1] came to 100%. Also, in assay [4] (setting [6]), the ED50 worked out at 0.023 mg/kg. In addition, the pKi (usually the Ki on a negative log10 scale, so that one unit is a factor of ten) in assay [5] is listed as < 5.

`O=C(O)CCN1CCC(=C2c3ccc(F)cc3OCc3cccnc32)CC1` [Example 2-(2), 3-[4-(8-Fluoro-5,11-dihydrobenz[b]oxepino[4,3-b]pyridin-11-ylidene)piperidino]propionic Acid]: in assay [2], the “Antiallergic activity (A) inhibition (%)” value amounted to 78%. Besides, the ED50 was found to be 32 mg/kg in assay [3] and 0.046 mg/kg in assay [4] (setting [6]). Besides, in assay [3], the “Selectivity (C/B)” value is reported as 696. In assay [1], the responders at 1 mg/kg came to 100%. For the same compound, the pKi in assay [5] is < 5.

Take `O=C(O)CCCN1CCC(=C2c3ccc(F)cc3Oc3cccnc32)CC1` [Example 23-(2), 4-[4-(7-Fluoro-10H-benzo[b]pyrano[3,2-b]pyridin-10-ylidene)piperidino]butyric Acid]: the responders at 1 mg/kg in assay [1] was found to be 100%.

Regarding `CC(=O)N1CCC(=C2c3ccc(Cl)cc3OCc3cccnc32)CC1` [Reference compound C], in assay [2], the “Antiallergic activity (A) inhibition (%)” value is -11%. Further, the responders at 1 mg/kg in assay [1] amounted to 20%. In assay [4] (setting [6]), the “Antiasthmatic activity (B) ED50” value is recorded as “No effect (1 mg/kg)”. This compound displayed a negative-log Ki (pKi) in assay [5] of 5.72.

With `O=C(O)CCCCCN1CCC(=C2c3ccc(F)cc3OCc3cccnc32)CC1` [Example 12-(2), 6-[4-(8-Fluoro-5,11-dihydrobenz[b]oxepino[4,3-b]pyridin-11-ylidene)piperidino]hexanoic Acid . Hydrochloride], the responders at 1 mg/kg in assay [1] amounted to 100%.

On to `O=C(O)CCCN1CCC(=C2c3ccc(Cl)cc3OCc3cccnc32)CC1` [Example 18-(2), 4-[4-(8-Chloro-5,11-dihydrobenz[b]oxepino[4,3-b]pyridin-11-ylidene)piperidino]butyric Acid. Hydrochloride], for which the responders at 1 mg/kg in assay [1] worked out at 80%.

`O=C(O)CCCCCN1CCC(=C2c3ccc(Cl)cc3OCc3cccnc32)CC1` [Example 21-(2), 6-[4-(8-Chloro-5,11-dihydrobenz[b]oxepino[4,3-b]pyridin-11-ylidene)piperidino]hexanoic Acid . Hydrochloride]: the responders at 1 mg/kg in assay [1] stood at 100%.

Take `O=C(O)CCCCN1CCC(=C2c3ccc(Cl)cc3OCc3cccnc32)CC1` [Example 20-(2), 5-[4-(8-Chloro-5,11-dihydrobenz[b]oxepino[4,3-b]pyridin-11-ylidene)piperidino]valeric Acid. Hydrochloride]: in assay [1], the responders at 1 mg/kg is 100%.

For the compound `O=C(O)CCN1CCC(=C2c3cccc(Cl)c3OCc3cccnc32)CC1` [Example 4-(2), 3-[4-(7-Chloro-5,11-dihydrobenz[b]oxepino[4,3-b]pyridin-11-ylidene)piperidino]propionic Acid. Hydrochloride], the responders at 1 mg/kg in assay [1] is 100%.

As to `O=C(O)CCN1CCC(=C2c3ccccc3OCc3cccnc32)CC1` [Example 1-(2), 3-[4-(5,11-Dihydrobenz[b]oxepino[4,3-b]pyridin-11-ylidene)piperidino]propionic Acid.Hydrochloride], the “Antiallergic activity (A) inhibition (%)” value in assay [2] came out at 80%. Moreover, in assay [3], the ED50 amounted to 36 mg/kg and the “Selectivity (C/B)” value came out at 439. Also, the responders at 1 mg/kg in assay [1] came to 80%. Further, the ED50 in assay [4] (setting [6]) was 0.082 mg/kg.

As to `CCOC(=O)N1CCC(=C2c3ccc(Cl)cc3CCc3cccnc32)CC1` [Reference compound B, Loratadine], the “Antiallergic activity (A) inhibition (%)” value in assay [2] is 38%. In addition, the responders at 1 mg/kg in assay [1] came to 60%. Also, the ED50 in assay [4] (po) was 0.13 mg/kg. In assay [5], this compound showed a negative logarithm of the Ki (pKi) of 6.04.

Take `CN1CCC(=C2c3ccccc3CCc3cccnc32)CC1` [Reference compound A, Azatadine, reference compound]: in assay [2], the “Antiallergic activity (A) inhibition (%)” value came out at 77%. The ED50 is 0.028 mg/kg in assay [3] and 0.001 mg/kg in assay [4] (setting [6]). Further, the “Selectivity (C/B)” value in assay [3] stood at 28. The responders at 1 mg/kg in assay [1] was 60%. The pKi in assay [5] is 8.47.

On to `CCOC(=O)CN1CCC(=C2c3ccc(Cl)cc3CCc3cccnc32)CC1` [Reference compound D, reference compound], for which the “Antiallergic activity (A) inhibition (%)” value in assay [2] turned out to be 41%. In assay [3], the ED50 worked out at 11 mg/kg and the “Selectivity (C/B)” value is reported as 38. Moreover, the responders at 1 mg/kg in assay [1] came to 40%. Besides, the ED50 in assay [4] (setting [6]) was found to be 0.29 mg/kg. In addition, in assay [5], the pKi amounted to 5.84.

With `O=C(O)CCN1CCC(=C2c3ccc(F)cc3Oc3cccnc32)CC1` [Example 9-(2), 3-[4-(7-Fluoro-10H-benzo[b]pyrano[3,2-b]pyridin-10-ylidene)piperidino]propionic Acid], the responders at 1 mg/kg in assay [1] is 100%.

`O=C(O)CCN1CCC(=C2c3cc(Cl)ccc3OCc3cccnc32)CC1` [Example 6-(2), 3-[4-(9-Chloro-5,11-dihydrobenz[b]oxepino[4,3-b]pyridin-11-ylidene)piperidino]propionic Acid]: the responders at 1 mg/kg in assay [1] was 100%.

For the compound `O=C(O)CCN1CCC(=C2c3ccccc3Oc3cccnc32)CC1` [Example 8-(2), 3-[4-(10H-benzo[b]pyrano[3,2-b]pyridin-10-ylidene)piperidino]propionic Acid], in assay [1], the responders at 1 mg/kg was determined as 100%.

For `CC(CN1CCC(=C2c3ccc(F)cc3OCc3cccnc32)CC1)C(=O)O` (stereo not shown) [Example 14-(2), 3-[4-(8-Fluoro-5,11-dihydrobenz[b]oxepino[4,3-b]pyridin-11-ylidene)piperidino]-2-methylpropionic Acid], in assay [1], the responders at 1 mg/kg stood at 100%.
